# Where two headings read alike, the source gives them in different places.
# Experiments:
# procollagen 1 = assay: Assay for collagen synthesis (secreted procollagen 1 immunoassay, fibroblasts); details: actives 0.2 to 20 mM, serum-free medium, 48 hours
# Procedure: Neonatal human dermal fibroblasts were purchased from Clonetics Corp., San Diego, Calif. All materials for cell culture were purchased from Life Technologies, N.Y. Cells were maintained in DMEM with 10% fetal bovine serum and used in passages 5-10. Confluent 96-well plates containing fibroblasts were treated with actives (0.2 to 20 mM) in serum-free medium for 48 hours. […] This was carried out in a BioDot SF apparatus according to the manufacturer's instructions (BioRad Labs, CA) and the blot was developed using a Vectastain Kit (PK6104, Vector Labs, CA) as per the manufacturer's directions. Color intensity was quantitated using an Ultroscan XL densitometer (Pharmacia LKB). Fold increase was calculated as (density of treated)/untreated.
# [1] = tested on: Normal human epidermal keratinocytes (NHEK); assay: Keratinocyte proliferation (DNA content, fluorometric); type: cell-based; details: for activation at 70 µM: 0.07 mM
# Procedure: Normal human epidermal keratinocytes (NHEK) derived from neonatal foreskin were used for all experiments. Media were purchased from Clonetics Corp., San Diego, Calif. Cell stocks frozen in passage 2 were grown in Keratinocyte Growth Medium (KGM) and passaged when 70-80% confluent. Cells were seeded in 96 well plates (Corning) at a density of 7500 cells/well in KGM. After 24 hours, cells were rinsed and dosed with test compounds in 200 μl of Keratinocyte Basal Medium (KBM). Plates were incubated for three days at 37° C., 5% CO2. Cell proliferation was estimated by assaying for DNA content by a fluorometric method described by Rago et al. (Analytical Biochemistry, 191:31-34, 1990). Medium was removed and cells were rinsed with phosphate buffered saline solution. 100 μl of sterile distilled water was added to each well and plates were frozen at -70° C. for one and a half hours. Plates were thawed for one hour at which time 100 μl of a 20 ug/ml solution of Bisbenzimide H33258 fluorochrome (Calbiochem Corp., La Jolla, Calif.) was added to each well. The fluorochrome was prepared just prior to use in 10 mM Tris, 1 mM EDTA, 4M NaCI, pH 7.4. Plates were read in a Millipore Cytofluor fluorescent plate reader to quantify DNA (excitation 360 nm, emission 460 nm). Percent increase over control was calculated from blank-corrected readings as (treated-untreated)/(untreated)*100. Each data point in the Tables below represents a mean of 5 or 6 replicates.
# The procedure of Example 2 was repeated except that various co-active ingredients were tested for their ability to stimulate keratinocyte proliferation.
# The procedure of Example 2 was repeated to test the effect of combination of an LDH inhibitor with another carboxylic acid on keratinocyte proliferation.
structure (smiles),measurement,setting,value
CC(=O)O [Acetate],"Collagen Synthesis, Maximum fold over Control",procollagen 1,2.0 fold
same,activation at 2 µM,"[1]; Homo sapiens, NHEK, 72 h, Table 4, Test A, 0.002 mM, read-out: Keratinocyte Proliferation (% increase over control)",22%
same,activation at 20 µM,"[1]; Homo sapiens, NHEK, 72 h, Table 4, Test A, 0.02 mM, read-out: Keratinocyte Proliferation (% increase over control)",31%
same,activation at 200 µM,"[1]; Homo sapiens, NHEK, 72 h, Table 4, Test A, 0.2 mM, read-out: Keratinocyte Proliferation (% increase over control)",43%
same,activation at 2000 µM,"[1]; Homo sapiens, NHEK, 72 h, Table 4, Test A, 2.0 mM, read-out: Keratinocyte Proliferation (% increase over control)",46%
same,activation at 10000 µM,"[1]; Homo sapiens, NHEK, 72 h, Table 4, Test A, 10 mM, read-out: Keratinocyte Proliferation (% increase over control)",63%
same,activation at 200 µM,"[1]; Homo sapiens, NHEK, 72 h, Table 4, Test B, 0.2 mM, read-out: Keratinocyte Proliferation (% increase over control)",12%
same,activation at 2000 µM,"[1]; Homo sapiens, NHEK, 72 h, Table 4, Test B, 2.0 mM, read-out: Keratinocyte Proliferation (% increase over control)",19%
same,activation at 10000 µM,"[1]; Homo sapiens, NHEK, 72 h, Table 4, Test B, 10 mM, read-out: Keratinocyte Proliferation (% increase over control)",0%
same,activation at 20000 µM,"[1]; Homo sapiens, NHEK, 72 h, Table 4, Test B, 20 mM, read-out: Keratinocyte Proliferation (% increase over control)",0%
same,activation at 156 µM,"[1]; Homo sapiens, NHEK, 72 h, Table 4, Test C, 0.156 mM, read-out: Keratinocyte Proliferation (% increase over control)",13%
same,activation at 313 µM,"[1]; Homo sapiens, NHEK, 72 h, Table 4, Test C, 0.313 mM, read-out: Keratinocyte Proliferation (% increase over control)",32%
same,activation at 625 µM,"[1]; Homo sapiens, NHEK, 72 h, Table 4, Test C, 0.625 mM, read-out: Keratinocyte Proliferation (% increase over control)",9%
same,activation at 1250 µM,"[1]; Homo sapiens, NHEK, 72 h, Table 4, Test C, 1.25 mM, read-out: Keratinocyte Proliferation (% increase over control)",2%
same,activation at 2500 µM,"[1]; Homo sapiens, NHEK, 72 h, Table 4, Test C, 2.5 mM, read-out: Keratinocyte Proliferation (% increase over control)",11%
same,activation at 5000 µM,"[1]; Homo sapiens, NHEK, 72 h, Table 4, Test C, 5.0 mM, read-out: Keratinocyte Proliferation (% increase over control)",0%
same,activation at 10000 µM,"[1]; Homo sapiens, NHEK, 72 h, Table 4, Test C, 10 mM, read-out: Keratinocyte Proliferation (% increase over control)",0%
same,activation at 70 µM,"[1]; Homo sapiens, NHEK, 72 h, Table 4, Test D, read-out: Keratinocyte Proliferation (% increase over control)",50%
same,activation at 156 µM,"[1]; Homo sapiens, NHEK, 72 h, Table 4, Test D, 0.156 mM, read-out: Keratinocyte Proliferation (% increase over control)",47%
same,activation at 313 µM,"[1]; Homo sapiens, NHEK, 72 h, Table 4, Test D, 0.313 mM, read-out: Keratinocyte Proliferation (% increase over control)",56%
same,activation at 625 µM,"[1]; Homo sapiens, NHEK, 72 h, Table 4, Test D, 0.625 mM, read-out: Keratinocyte Proliferation (% increase over control)",57%
same,activation at 1250 µM,"[1]; Homo sapiens, NHEK, 72 h, Table 4, Test D, 1.25 mM, read-out: Keratinocyte Proliferation (% increase over control)",42%
same,activation at 2500 µM,"[1]; Homo sapiens, NHEK, 72 h, Table 4, Test D, 2.5 mM, read-out: Keratinocyte Proliferation (% increase over control)",44%
same,activation at 5000 µM,"[1]; Homo sapiens, NHEK, 72 h, Table 4, Test D, 5.0 mM, read-out: Keratinocyte Proliferation (% increase over control)",18%
same,activation at 70 µM,"[1]; Homo sapiens, NHEK, 72 h, Table 4, Test E, read-out: Keratinocyte Proliferation (% increase over control)",0%
same,activation at 156 µM,"[1]; Homo sapiens, NHEK, 72 h, Table 4, Test E, 0.156 mM, read-out: Keratinocyte Proliferation (% increase over control)",6%
same,activation at 313 µM,"[1]; Homo sapiens, NHEK, 72 h, Table 4, Test E, 0.313 mM, read-out: Keratinocyte Proliferation (% increase over control)",24%
same,activation at 313 µM,"[1]; Homo sapiens, NHEK, 72 h, Table 4, Test F, 0.313 mM, read-out: Keratinocyte Proliferation (% increase over control)",5%
same,activation at 625 µM,"[1]; Homo sapiens, NHEK, 72 h, Table 4, Test F, 0.625 mM, read-out: Keratinocyte Proliferation (% increase over control)",34%
same,activation at 1250 µM,"[1]; Homo sapiens, NHEK, 72 h, Table 4, Test F, 1.25 mM, read-out: Keratinocyte Proliferation (% increase over control)",35%
same,activation at 2500 µM,"[1]; Homo sapiens, NHEK, 72 h, Table 4, Test F, 2.5 mM, read-out: Keratinocyte Proliferation (% increase over control)",33%
same,activation at 5000 µM,"[1]; Homo sapiens, NHEK, 72 h, Table 4, Test F, 5.0 mM, read-out: Keratinocyte Proliferation (% increase over control)",7%
same,activation at 10000 µM,"[1]; Homo sapiens, NHEK, 72 h, Table 4, Test F, 10 mM, read-out: Keratinocyte Proliferation (% increase over control)",0%
same,activation at 313 µM,"[1]; Homo sapiens, NHEK, 72 h, Table 4, Test G, 0.313 mM, read-out: Keratinocyte Proliferation (% increase over control)",38%
same,activation at 625 µM,"[1]; Homo sapiens, NHEK, 72 h, Table 4, Test G, 0.625 mM, read-out: Keratinocyte Proliferation (% increase over control)",11%
same,activation at 1250 µM,"[1]; Homo sapiens, NHEK, 72 h, Table 4, Test G, 1.25 mM, read-out: Keratinocyte Proliferation (% increase over control)",24%
same,activation at 2500 µM,"[1]; Homo sapiens, NHEK, 72 h, Table 4, Test G, 2.5 mM, read-out: Keratinocyte Proliferation (% increase over control)",12%
same,activation at 5000 µM,"[1]; Homo sapiens, NHEK, 72 h, Table 4, Test G, 5.0 mM, read-out: Keratinocyte Proliferation (% increase over control)",18%
same,activation at 10000 µM,"[1]; Homo sapiens, NHEK, 72 h, Table 4, Test G, 10 mM, read-out: Keratinocyte Proliferation (% increase over control)",0%
same,"Keratinocyte proliferation, % Increase Over Control","[1]; Table 7, single agent alone, 0.156 mM",41%
same,"Keratinocyte proliferation, % Increase Over Control","[1]; Table 7, single agent alone, 0.313 mM",28%
same,"Keratinocyte proliferation, % Increase Over Control","[1]; Table 7, single agent alone, 0.625 mM",55%
same,"Keratinocyte proliferation, % Increase Over Control","[1]; Table 7, single agent alone, 1.25 mM",55%
same,"Keratinocyte proliferation, % Increase Over Control","[1]; Table 7, single agent alone, 2.5 mM",18%
same,"Keratinocyte proliferation, % Increase Over Control","[1]; Table 7, single agent alone, 5.0 mM",0%
O=C(O)CC(=O)C(=O)O [Oxaloacetate],"Collagen Synthesis, Maximum fold over Control",procollagen 1,3.0 fold
same,activation at 2 µM,"[1]; Homo sapiens, NHEK, 72 h, read-out: Keratinocyte Proliferation (% increase over Control), Table 5, Test A, 0.002 mM",11%
same,activation at 20 µM,"[1]; Homo sapiens, NHEK, 72 h, read-out: Keratinocyte Proliferation (% increase over Control), Table 5, Test A, 0.02 mM",15%
same,activation at 200 µM,"[1]; Homo sapiens, NHEK, 72 h, read-out: Keratinocyte Proliferation (% increase over Control), Table 5, Test A, 0.2 mM",22%
same,activation at 2000 µM,"[1]; Homo sapiens, NHEK, 72 h, read-out: Keratinocyte Proliferation (% increase over Control), Table 5, Test A, 2.0 mM",53%
same,activation at 10000 µM,"[1]; Homo sapiens, NHEK, 72 h, read-out: Keratinocyte Proliferation (% increase over Control), Table 5, Test A, 10 mM",110%
same,activation at 20 µM,"[1]; Homo sapiens, NHEK, 72 h, read-out: Keratinocyte Proliferation (% increase over Control), Table 5, Test B, 0.02 mM",30%
same,activation at 200 µM,"[1]; Homo sapiens, NHEK, 72 h, read-out: Keratinocyte Proliferation (% increase over Control), Table 5, Test B, 0.2 mM",20%
same,activation at 2000 µM,"[1]; Homo sapiens, NHEK, 72 h, read-out: Keratinocyte Proliferation (% increase over Control), Table 5, Test B, 2.0 mM",16%
same,activation at 10000 µM,"[1]; Homo sapiens, NHEK, 72 h, read-out: Keratinocyte Proliferation (% increase over Control), Table 5, Test B, 10 mM",70%
same,activation at 20000 µM,"[1]; Homo sapiens, NHEK, 72 h, read-out: Keratinocyte Proliferation (% increase over Control), Table 5, Test B, 20 mM",44%
same,activation at 150 µM,"[1]; Homo sapiens, NHEK, 72 h, read-out: Keratinocyte Proliferation (% increase over Control), Table 5, Test C, 0.15 mM",13%
same,activation at 300 µM,"[1]; Homo sapiens, NHEK, 72 h, read-out: Keratinocyte Proliferation (% increase over Control), Table 5, Test C, 0.3 mM",18%
same,activation at 600 µM,"[1]; Homo sapiens, NHEK, 72 h, read-out: Keratinocyte Proliferation (% increase over Control), Table 5, Test C, 0.6 mM",20%
same,activation at 1250 µM,"[1]; Homo sapiens, NHEK, 72 h, read-out: Keratinocyte Proliferation (% increase over Control), Table 5, Test C, 1.25 mM",18%
same,activation at 2500 µM,"[1]; Homo sapiens, NHEK, 72 h, read-out: Keratinocyte Proliferation (% increase over Control), Table 5, Test C, 2.5 mM",40%
same,activation at 5000 µM,"[1]; Homo sapiens, NHEK, 72 h, read-out: Keratinocyte Proliferation (% increase over Control), Table 5, Test C, 5.0 mM",35%
same,activation at 10000 µM,"[1]; Homo sapiens, NHEK, 72 h, read-out: Keratinocyte Proliferation (% increase over Control), Table 5, Test C, 10 mM",0%
same,activation at 80 µM,"[1]; Homo sapiens, NHEK, 72 h, read-out: Keratinocyte Proliferation (% increase over Control), Table 5, Test D, 0.08 mM",56%
same,activation at 150 µM,"[1]; Homo sapiens, NHEK, 72 h, read-out: Keratinocyte Proliferation (% increase over Control), Table 5, Test D, 0.15 mM",76%
same,activation at 300 µM,"[1]; Homo sapiens, NHEK, 72 h, read-out: Keratinocyte Proliferation (% increase over Control), Table 5, Test D, 0.3 mM",63%
same,activation at 600 µM,"[1]; Homo sapiens, NHEK, 72 h, read-out: Keratinocyte Proliferation (% increase over Control), Table 5, Test D, 0.6 mM",48%
same,activation at 1250 µM,"[1]; Homo sapiens, NHEK, 72 h, read-out: Keratinocyte Proliferation (% increase over Control), Table 5, Test D, 1.25 mM",37%
same,activation at 2500 µM,"[1]; Homo sapiens, NHEK, 72 h, read-out: Keratinocyte Proliferation (% increase over Control), Table 5, Test D, 2.5 mM",37%
same,activation at 5000 µM,"[1]; Homo sapiens, NHEK, 72 h, read-out: Keratinocyte Proliferation (% increase over Control), Table 5, Test D, 5.0 mM",52%
same,activation at 10000 µM,"[1]; Homo sapiens, NHEK, 72 h, read-out: Keratinocyte Proliferation (% increase over Control), Table 5, Test D, 10 mM",52%
O=C(O)CCC(=O)O [Succinate],"Collagen Synthesis, Maximum fold over Control",procollagen 1,2.8 fold
same,"Keratinocyte proliferation, % Increase Over Control","[1]; Table 8, single agent alone, 0.156 mM",48%
same,"Keratinocyte proliferation, % Increase Over Control","[1]; Table 8, single agent alone, 0.313 mM",48%
same,"Keratinocyte proliferation, % Increase Over Control","[1]; Table 8, single agent alone, 0.625 mM",39%
same,"Keratinocyte proliferation, % Increase Over Control","[1]; Table 8, single agent alone, 1.25 mM",51%
same,"Keratinocyte proliferation, % Increase Over Control","[1]; Table 8, single agent alone, 2.5 mM",58%
same,"Keratinocyte proliferation, % Increase Over Control","[1]; Table 8, single agent alone, 5.0 mM",0%
